“And” between values parts separate entries of the source, which are not always exact repeats. Identical values can stand only once.
Assays:
[1] = biological target: T1, RecG⋅DNA(A40:B40) (Thermotoga maritima, UniProt Q9WY48); assay: Quench-flow measurement of cleavage step (mantADP formation, HPLC); assay type: biochemical
T1 construct: made in house
T1 sequence (Q9WY48 1-780): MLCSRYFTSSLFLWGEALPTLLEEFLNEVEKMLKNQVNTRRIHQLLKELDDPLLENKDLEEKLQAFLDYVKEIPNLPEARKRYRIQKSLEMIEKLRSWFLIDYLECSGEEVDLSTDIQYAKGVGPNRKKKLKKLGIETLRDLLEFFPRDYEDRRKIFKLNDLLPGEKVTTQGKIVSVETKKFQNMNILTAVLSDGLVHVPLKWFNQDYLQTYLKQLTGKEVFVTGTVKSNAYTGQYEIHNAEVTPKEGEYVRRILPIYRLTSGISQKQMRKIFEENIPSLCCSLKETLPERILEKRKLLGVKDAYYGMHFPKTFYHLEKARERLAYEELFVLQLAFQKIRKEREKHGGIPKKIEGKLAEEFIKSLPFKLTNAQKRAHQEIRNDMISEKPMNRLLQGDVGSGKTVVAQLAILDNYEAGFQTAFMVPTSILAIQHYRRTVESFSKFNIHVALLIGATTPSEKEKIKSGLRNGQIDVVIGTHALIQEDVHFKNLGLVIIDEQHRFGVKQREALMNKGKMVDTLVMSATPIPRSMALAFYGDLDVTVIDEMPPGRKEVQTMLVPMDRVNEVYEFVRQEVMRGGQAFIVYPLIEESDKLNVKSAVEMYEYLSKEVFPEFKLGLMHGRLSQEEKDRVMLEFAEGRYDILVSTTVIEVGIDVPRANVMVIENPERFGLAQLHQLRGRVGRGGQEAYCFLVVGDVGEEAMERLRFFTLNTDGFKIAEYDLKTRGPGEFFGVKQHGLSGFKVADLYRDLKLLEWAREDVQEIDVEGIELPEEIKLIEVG
Procedure: Single turnover measurements of the cleavage step and Pi release were performed with excess RecG⋅DNA over mantATP using conditions of the mantATP fluorescence measurements, described above. Quench-flow measurements allowed the formation of nucleoside diphosphate to be monitored with high time resolution. MantATP was rapidly mixed with excess RecG⋅DNA, and the reaction mix was quenched in acid at particular time points. The mix was then analyzed by HPLC to quantify mantATP and mantADP, giving the time course of mantADP formation (Figure 4A). This time course had similar kinetics to the slow phase of the mant fluorescence trace (0.2 s^−1), supporting the idea that this phase is mantADP formation.
These were carried out using a HiTech RQF-63 apparatus using different length loops and flow rates to age reactions before quenching using 10% perchloric acid. Samples were analyzed for the ratio of mantATP to mantADP by HPLC, as described.

[2] = biological target: T1, RecG⋅DNA(A40:B40); assay: Single turnover mant fluorescence, excess RecG⋅DNA over mantATP; assay type: biochemical
Procedure: Extra information relating to changes in a single ATPase cycle can be obtained by mixing excess RecG⋅DNA(A40:B40) with mantATP (Figure 4A). […] The first change in fluorescence is presumably due to binding. After fitting to a double exponential, the observed rate constant for the initial change was linearly dependent on RecG concentration over the small range possible (0.5 µM –2.5 µM), limited by protein precipitation at higher concentrations. Due to the low concentrations, a hyperbolic dependence would not be observed. The observed rate constant of the second increase in fluorescence, 0.22 (±0.05) s^−1 (Figure 4A), was independent of RecG concentration. This second phase is likely to be due to the cleavage step, leading to the formation of bound mantADP.
Figure 4 Kinetic measurement of mantATP with excess of RecG and DNA: binding, hydrolysis and Pi release. The concentrations for all experiments were 0.5 µM mantATP, 2.5 µM RecG, 5 µM DNA (A40:B40) and 10 µM MDCC-PBP (for Pi measurement). All measurements were carried out at 20°C in the buffer described in Materials and Methods. (A) Time course of mant fluorescence (solid line), mantADP formation (circles) and Pi release (dashed line), measured as described in materials and methods. […] (B) Simulation of these time courses, based upon a global model for a single turnover of mantATP as described in the text. (C) The time course of mant fluorescence upon mixing 0.5 µM mantATP and 2.5 µM RecG with 5 µM DNA junction (A40:B40) after a first mixing of 5 µM RecG and 1 µM mantATP and aging for 1 s.
Stopped-flow experiments were performed in a HiTech SF61DX2 apparatus (TgK Scientific Ltd, Bradford-on-Avon, UK) with a mercury-xenon light source and HiTech KinetAsyst 3 or Kinetic Studio 1 software. For MDCC-PBP fluorescence, the excitation wavelength used was 436 nm and a 455 nm cut-off filter (Schott glass) used to collect emitted light. The signal was calibrated using known concentrations of Pi. The solutions contained the Pi mop, to minimize phosphate contamination and comprising 0.01 unit ml^−1 bacterial purine nucleoside phosphorylase and 200 µM 7-methylguanosine. For mant fluorescence, 366 nm was used to excite and a 400 nm cut-off filter (Schott glass) used to collect light. Measurements of Cy3 fluorescence used 547 nm excitation and a 570 nm cut-off filter. In experiments described, the quoted concentrations are those in the mixing chamber, except where stated. Data were fitted to theoretical curves using the HiTech software or Grafit.

CNc1ccccc1C(=O)O[C@H]1[C@@H](O)[C@H](n2cnc3c(N)ncnc32)O[C@@H]1COP(=O)(O)OP(=O)(O)OP(=O)(O)O [mantATP, 2′(3′)-O-(N-methylanthraniloyl)ATP]
rate of mantADP formation (quench-flow time course) ([1]; 0.5 µM mantATP, 2.5 µM RecG, 5 µM DNA): 0.2 s⁻¹
hydrolytic cleavage slower than ATP ([1]; mantATP vs ATP): ~10 fold
observed rate constant of the second increase in fluorescence ([2]; 0.5 µM mantATP, excess RecG⋅DNA, independent of RecG concentration): 0.22 (±0.05) s^−1
k +2 (cleavage step) ([2]; 20°C): 0.2 s⁻¹ and 0.22 s⁻¹
initial small increase in fluorescence as part of overall change ([2]; excess RecG⋅DNA over mantATP): ~20%
fluorescence intensity increase of bound nucleotide relative to free nucleotide ([2]; excess RecG⋅DNA(A40:B40)): 1.5 fold

From PMC3368886, “ATPase Cycle and DNA Unwinding Kinetics of RecG Helicase” (PLoS ONE, 2012)
